These results are taken from patent US20130344055A1, “ANTIMICROBIAL AGENTS” (priority 2010, published 2013).

For one experiment, the system named is P. aeruginosa PAO1p. Put plainly: In vitro antibacterial activity (log reduction) of modified OBPgpLys fusion variants. Type of experiment: cell-based. To be noted: 10^6 cells/ml, 30 minutes at RT. As to the method: (§1) Exponential growing Gram-negative bacterial cells (OD600 nm=0.6) were 100-fold diluted to a final density of about 10^6 cells/ml in 5 mM HEPES pH 7.4 and incubated for 30 minutes at room temperature without shaking with the different modified OBPgpLYS variants (in Elution Buffer in an end concentration of 1500 nM). After incubation cell suspensions and as a control untreated bacterial cells without any added modified OBPgpLYS variant were diluted three times (respectively 10^5-10^4-10^3 cells/ml) in 1× concentrated PBS buffer and 100 μl of each dilution was plated out on LB-medium. […] All samples were replicated in threefold. Averages +/− standard deviations are represented.
(§2) The production of OBPgpLys with two peptide stretches is described above in Example 1. Moreover, the purification of the fusion proteins and the antimicrobial activity assay was performed as described already in Example 1.

The subject of another experiment is P. putida G1. The experiment is described as above. Type of experiment: cell-based. The settings on record: 10^6 cells/ml, 30 minutes at RT. Here is the method:
as §1, §2

In another experiment the test system is E. coli XL1 blue. Type of experiment: cell-based. To be noted: for Average log reduction, E. coli. X1-1: Table 9, with EDTA 0.5 mM. Here is the method: . After incubation cell suspensions and as a control untreated bacterial cells without any added modified OBPgpLYS variant were diluted three times (respectively 10^5-10^4-10^3 cells/ml) in 1× concentrated PBS buffer and 100 μl of each dilution was plated out on LB-medium. […] All samples were replicated in threefold. Averages +/− standard deviations are represented.
as §2

The test system of another experiment is S. typhimurium LT2. Put plainly: In vitro antibacterial activity (log reduction) of modified OBPgpLys fusion variants. To be noted: 10^6 cells/ml, 30 minutes at RT; for Average log reduction, Salmonella typhimurium LT2: Table 9, with EDTA 0.5 mM; for Average log reduction, S. typhimurium LT2: 1500 nM protein. Type of experiment: cell-based, Salmonella typhimurium. Here is the method: After incubation cell suspensions and as a control untreated bacterial cells without any added modified OBPgpLYS variant were diluted three times (respectively 10^5-10^4-10^3 cells/ml) in 1× concentrated PBS buffer and 100 μl of each dilution was plated out on LB-medium. […] All samples were replicated in threefold. Averages +/− standard deviations are represented.
as §2

Another experiment deals with Staphylococcus bacteria. Put plainly: In vitro antibacterial activity of Lysostaphin and LysK fusion variants. Type of experiment: cell-based. The settings on record: Lysostaphin variants; with EDTA 0.5 mM; 10^6 cells/ml; 30 minutes at RT.
Where [1] appears, read: with EDTA 0.5 mM (B), 1500 nM protein.
[2] abbreviates: without EDTA (A), 1500 nM protein.
Where [3] appears, read: 10^6 cells/ml, 30 minutes at RT.
Where [4] appears, read: with EDTA 0.5 mM (B), 1500 nM protein, 10^6 cells/ml, 30 minutes at RT.
Setting [5] is: without EDTA (A), 1500 nM protein, 10^6 cells/ml, 30 minutes at RT.

Where two headings read alike, the source gives them in different places.

Take `O=C(O)CN(CCN(CC(=O)O)CC(=O)O)CC(=O)O` [EDTA, reference compound]: the “Average log reduction, P. aeruginosa PAO1p” value in the experiment on P. aeruginosa PAO1p (setting [1]) turned out to be 1.82 log. The “Average log reduction, P. putida G1” value with P. putida G1 (setting [1]) is reported as 0.65 log. In addition, in the experiment with E. coli XL1 blue, the “Average log reduction, E. coli XL1 blue” value was 0.85 log.

Consider “Lycotoxin1-PK-OBPgpLYS: antimicrobial peptide Lycotoxin 1, then PK, N-terminally fused to endolysin OBPgpLys”, for which the “Average log reduction, Salmonella typhimurium LT2” value with S. typhimurium LT2 is on record as “+ (+: 1 log)”. In addition, the “Average log reduction, S. typhimurium LT2” value in the experiment with S. typhimurium LT2 (with EDTA 0.5 mM (B)) was 0.29 log; in the experiment on S. typhimurium LT2 (without EDTA (A)), 0.17 log. Besides, the “Average log reduction, P. aeruginosa PAO1p” value in the experiment on P. aeruginosa PAO1p (Table 9, with EDTA 0.5 mM) is listed as “+++ (+++: 4 or more logs)”; in the experiment with P. aeruginosa PAO1p (setting [1]), 3.73 log; in the experiment with P. aeruginosa PAO1p (setting [2]), 0.08 log. Further, the “Average log reduction, P. putida G1” value in the experiment on P. putida G1 (Table 9, with EDTA 0.5 mM) was “++ (++: 2-3 log)”; in the experiment with P. putida G1 (setting [1]) it was 2.26 log; with P. putida G1 (setting [2]), 0.56 log. In addition, in the experiment on E. coli XL1 blue (setting [3]), the “Average log reduction, E. coli. X1-1” value is reported as “++ (++: 2-3 log)”. Moreover, the “Average log reduction, E. coli XL1 blue” value amounted to 0.90 log in the experiment with E. coli XL1 blue (setting [4]) and 0.41 log in the experiment on E. coli XL1 blue (setting [5]).

For the compound “Lysostaphin-Sarcotoxin IA: Lysostaphin fusion variant with one peptide stretch, Sarcotoxin IA, C-terminal”, in the experiment with Staphylococcus bacteria, the “Average log reduction, Staphylococcus” value is reported as “++ (++: 2-3 log)”.

Consider “Lysostaphin: bacteriocin degrading Staphylococcus cell walls”, for which the “Average log reduction, Staphylococcus” value in the experiment on Staphylococcus bacteria is recorded as “+ (+: 1 log)”.

“OBPgpLYS: endolysin of Pseudomonas putida phage OBP, without peptide stretch”: the “Average log reduction, Salmonella typhimurium LT2” value in the experiment with S. typhimurium LT2 is on record as “+ (+: 1 log)”. Further, the “Average log reduction, P. aeruginosa PAO1p” value in the experiment with P. aeruginosa PAO1p (Table 9, with EDTA 0.5 mM) is “+ (+: 1 log)”. Further, the “Average log reduction, P. putida G1” value in the experiment with P. putida G1 (Table 9, with EDTA 0.5 mM) was “+ (+: 1 log)”. In the experiment with E. coli XL1 blue (setting [3]), the “Average log reduction, E. coli. X1-1” value is “+ (+: 1 log)”.

“PK-Pentapeptide-OBPgplys: polycationic peptide PK, then hydrophobic pentapeptide FFVAP, N-terminally fused to endolysin OBPgpLys”: the “Average log reduction, Salmonella typhimurium LT2” value in the experiment with S. typhimurium LT2 was “+ (+: 1 log)”. Besides, the results for the “Average log reduction, S. typhimurium LT2” value in the experiment on S. typhimurium LT2 (with EDTA 0.5 mM (B)) and with S. typhimurium LT2 (without EDTA (A)) were 0.42 log and 0.22 log, respectively. Further, the “Average log reduction, P. aeruginosa PAO1p” value with P. aeruginosa PAO1p (Table 9, with EDTA 0.5 mM) is “+++ (+++: 4 or more logs)”; in the experiment with P. aeruginosa PAO1p (setting [1]) it was 4.00 log; in the experiment with P. aeruginosa PAO1p (setting [2]), 0.95 log. Also, the “Average log reduction, P. putida G1” value in the experiment on P. putida G1 (Table 9, with EDTA 0.5 mM) is “+++ (+++: 4 or more logs)”; with P. putida G1 (setting [1]) it was 3.24 log; with P. putida G1 (setting [2]), 0.80 log. Besides, the “Average log reduction, E. coli. X1-1” value in the experiment on E. coli XL1 blue (setting [3]) is recorded as “++ (++: 2-3 log)”. Also, the figures for the “Average log reduction, E. coli XL1 blue” value in the experiment on E. coli XL1 blue (setting [4]) and with E. coli XL1 blue (setting [5]) were 2.12 log and 1.69 log, respectively.

Regarding “PK-α4-OBPgpLys: polycationic peptide PK, then α4-helix of T4-lysozyme, N-terminally fused to endolysin OBPgpLys”, the “Average log reduction, Salmonella typhimurium LT2” value in the experiment with S. typhimurium LT2 was “+ (+: 1 log)”. For the same compound, the “Average log reduction, S. typhimurium LT2” value with S. typhimurium LT2 (with EDTA 0.5 mM (B)) was 0.29 log; with S. typhimurium LT2 (without EDTA (A)), 0.23 log. For the same compound, the “Average log reduction, P. aeruginosa PAO1p” value is listed as “+++ (+++: 4 or more logs)” in the experiment on P. aeruginosa PAO1p (Table 9, with EDTA 0.5 mM); 5.07 log in the experiment with P. aeruginosa PAO1p (setting [1]); 1.10 log with P. aeruginosa PAO1p (setting [2]). The “Average log reduction, P. putida G1” value with P. putida G1 (Table 9, with EDTA 0.5 mM) is reported as “++ (++: 2-3 log)”; in the experiment on P. putida G1 (setting [1]) it was 2.97 log; in the experiment with P. putida G1 (setting [2]), 0.01 log. Also, the “Average log reduction, E. coli. X1-1” value with E. coli XL1 blue (setting [3]) is reported as “++ (++: 2-3 log)”. The entries for the “Average log reduction, E. coli XL1 blue” value with E. coli XL1 blue (setting [4]) and in the experiment with E. coli XL1 blue (setting [5]) were 0.86 log and 0.54 log, respectively.

Regarding “Parasin1-PK-OBPgpLys: antimicrobial peptide Parasin 1, then PK, N-terminally fused to endolysin OBPgpLys”, the “Average log reduction, Salmonella typhimurium LT2” value with S. typhimurium LT2 is “+ (+: 1 log)”. Besides, the “Average log reduction, S. typhimurium LT2” value in the experiment with S. typhimurium LT2 (with EDTA 0.5 mM (B)) was 0.28 log; in the experiment with S. typhimurium LT2 (without EDTA (A)) it was 0.27 log. Also, the “Average log reduction, P. aeruginosa PAO1p” value was “+++ (+++: 4 or more logs)” in the experiment on P. aeruginosa PAO1p (Table 9, with EDTA 0.5 mM); 4.92 log in the experiment on P. aeruginosa PAO1p (setting [1]); 0.75 log in the experiment with P. aeruginosa PAO1p (setting [2]). Also, the “Average log reduction, P. putida G1” value with P. putida G1 (Table 9, with EDTA 0.5 mM) is given as “++ (++: 2-3 log)”; with P. putida G1 (setting [1]), 2.32 log; in the experiment with P. putida G1 (setting [2]), 0.16 log. Further, the “Average log reduction, E. coli. X1-1” value in the experiment on E. coli XL1 blue (setting [3]) is given as “++ (++: 2-3 log)”. Further, the “Average log reduction, E. coli XL1 blue” value with E. coli XL1 blue (setting [4]) is 1.00 log; in the experiment on E. coli XL1 blue (setting [5]), 0.70 log.

In the case of “Sarcotoxin IA-Lysostaphin: Lysostaphin fusion variant with one peptide stretch, Sarcotoxin IA, N-terminal”, the “Average log reduction, Staphylococcus” value in the experiment on Staphylococcus bacteria was “++ (++: 2-3 log)”.

For the compound “Walmagh1-PK-OBPgpLYS: hydrophobic peptide Walmagh 1, then PK, N-terminally fused to endolysin OBPgpLys”, the “Average log reduction, S. typhimurium LT2” value in the experiment with S. typhimurium LT2 (with EDTA 0.5 mM (B)) is on record as 0.17 log; with S. typhimurium LT2 (without EDTA (A)), 0.12 log. Besides, the “Average log reduction, P. aeruginosa PAO1p” value with P. aeruginosa PAO1p (setting [1]) came to 3.66 log; in the experiment on P. aeruginosa PAO1p (setting [2]) it was 0.20 log. Moreover, the entries for the “Average log reduction, P. putida G1” value in the experiment on P. putida G1 (setting [1]) and with P. putida G1 (setting [2]) were 3.22 log and 0.29 log, respectively. Further, the “Average log reduction, E. coli XL1 blue” value worked out at 1.70 log in the experiment with E. coli XL1 blue (setting [4]) and 1.46 log in the experiment on E. coli XL1 blue (setting [5]).

Consider “Walmagh2-PK-OBPgplys: amphiphatic peptide Walmagh 2, then PK, N-terminally fused to endolysin OBPgpLys”, for which, in the experiment with S. typhimurium LT2, the “Average log reduction, Salmonella typhimurium LT2” value is “+ (+: 1 log)”. Also, the “Average log reduction, S. typhimurium LT2” value in the experiment with S. typhimurium LT2 (with EDTA 0.5 mM (B)) is 0.25 log; with S. typhimurium LT2 (without EDTA (A)), 0.17 log. Moreover, the “Average log reduction, P. aeruginosa PAO1p” value with P. aeruginosa PAO1p (Table 9, with EDTA 0.5 mM) is “+++ (+++: 4 or more logs)”; in the experiment with P. aeruginosa PAO1p (setting [1]), 3.91 log; with P. aeruginosa PAO1p (setting [2]) it was 0.57 log. Besides, the “Average log reduction, P. putida G1” value in the experiment on P. putida G1 (Table 9, with EDTA 0.5 mM) is reported as “++ (++: 2-3 log)”; in the experiment on P. putida G1 (setting [1]), 2.60 log; in the experiment on P. putida G1 (setting [2]), 0.00 log. In addition, the “Average log reduction, E. coli. X1-1” value in the experiment with E. coli XL1 blue (setting [3]) was “++ (++: 2-3 log)”. For the same compound, the “Average log reduction, E. coli XL1 blue” value in the experiment on E. coli XL1 blue (setting [4]) is given as 1.86 log; in the experiment on E. coli XL1 blue (setting [5]), 1.68 log.

Consider “α4-PK-OBPgpLys: α4-helix of T4-lysozyme, then polycationic peptide PK, N-terminally fused to endolysin OBPgpLys”, for which, in the experiment on S. typhimurium LT2, the “Average log reduction, Salmonella typhimurium LT2” value is listed as “+ (+: 1 log)”. Further, the “Average log reduction, S. typhimurium LT2” value stood at 0.35 log in the experiment on S. typhimurium LT2 (with EDTA 0.5 mM (B)) and 0.22 log in the experiment with S. typhimurium LT2 (without EDTA (A)). For the same compound, the “Average log reduction, P. aeruginosa PAO1p” value is given as “+++ (+++: 4 or more logs)” in the experiment on P. aeruginosa PAO1p (Table 9, with EDTA 0.5 mM); 5.23 log with P. aeruginosa PAO1p (setting [1]); 0.59 log in the experiment with P. aeruginosa PAO1p (setting [2]). Also, the “Average log reduction, P. putida G1” value in the experiment on P. putida G1 (Table 9, with EDTA 0.5 mM) is reported as “++ (++: 2-3 log)”; in the experiment with P. putida G1 (setting [1]) it was 2.98 log; in the experiment on P. putida G1 (setting [2]), 0.02 log. For the same compound, the “Average log reduction, E. coli. X1-1” value in the experiment with E. coli XL1 blue (setting [3]) is “+ (+: 1 log)”. The “Average log reduction, E. coli XL1 blue” value with E. coli XL1 blue (setting [4]) was determined as 0.58 log; in the experiment with E. coli XL1 blue (setting [5]), 0.55 log.
